Experimental findings from patent US20110009628A1, “Compounds and Compositions for Modulating Lipid Levels and Methods of Preparing Same” (priority 2009, published 2011) are described below.

The assay concerns LDLR mRNA expression in HepG2 cells. The assay can be described thus: LDLR mRNA expression in HepG2 cells, quantitative real-time RT-PCR (Example 7). In kind it is cell-based, human. The settings on record: dose less than or equal to 10 μM, 24 hours. Here is the method:
In yet another experiment, HepG2 cells were treated with various compounds for 24 hours at the indicated doses. Total RNA was isolated and 2 μg was used to generate cDNA in a reaction containing random primers and M-MLV at 37° C. for 1 hour in a volume of 25 μL. Real-time PCR was performed on the cDNA using MCEP REALPLEX 2 SYSTEM (Eppendorf) and Universal MasterMix (Applied Biosystems). Human LDLR and GAPDH Pre-Developed TaqMan Assay Reagents (Applied Biosystems) were used to assess the levels of mRNA expressions in HepG2. The levels of LDLR mRNA were normalized to that of GAPDH. Each RNA samples was assayed in triplicate. The abundance of LDLR mRNA in untreated cells was defined as 1, and the amounts of LDLR mRNA from compound-treated cells were plotted relative to that value in FIG. 2B. The data shown are mean±s.d.
Activities of some compounds of Formulas I, II and EE on LDLR mRNA expression were determined. HepG2 cells were treated with new compounds individually at a dose less than or equal to 10 μM for 24 hours. […] In these experiments, berberine chloride was included for comparison.

Take `COc1ccc2c(c1OS(=O)(=O)C(F)(F)F)CN1CCc3cc4c(cc3C1C2)OCO4` (stereo not shown) [Compound 90, 10-methoxy-5,6,7,8,13,13a-hexahydro-2H-1,3-dioxolano[4,5-g] isoquinolino[3,2-a] isoquinolin-9-yl (trifluoromethyl)sulfonate]: the “Activity on LDLR mRNA expression (Fold of control)” value (“Activity … (Fold of control)” below) is recorded as 1.21 ± 0.07 Fold of control.
To `COc1ccc2c(c1Oc1ncc([N+](=O)[O-])cc1C)CN1CCc3cc4c(cc3C1C2)OCO4` (stereo not shown) [Compound 94, 10-methoxy-9-(3-methyl-5-nitro(2-pyridyl)oxy)-5,6,7,8,13,13a-hexahydro-2H-1,3-dioxolano[4,5-g]isoquinolino[3,2-a]isoquinoline] belongs 1.22 ± 0.18 Fold of control.
To `COc1ccc2c(c1OC(=O)Nc1ccccc1)CN1CCc3cc4c(cc3C1C2)OCO4` (stereo not shown) [Compound 61, (10-methoxy(5,6,7,8,13,13a-hexahydro-2H-1,3-dioxolano[4,5-g]isoquinolino[3,2-a]isoquinolin-9-yloxy))-N-benzamide] belongs 1.33 ± 0.53 Fold of control; to `COc1ccc(S(=O)(=O)Oc2c(OC)ccc3c2CN2CCc4cc5c(cc4C2C3)OCO5)cc1OC` (stereo not shown) [Compound 86, 9-(3,4-dimethoxy-benzenesulfonyloxy)-10-methoxy-5,8,13,13a-tetrahydro-6H-[1,3]dioxolo[4,5-g]isoquino[3,2-a]isoquinoline], 2.48 ± 0.62 Fold of control; to `COc1ccc2c(c1OCCN1CCOCC1)CN1CCc3cc4c(cc3C1C2)OCO4` (stereo not shown) [Compound 88, 9-O-2-(1′-morpholine-ethyl)-10-methoxy-5,8,13,13a-tetrahydro-6H-[1,3]dioxolo[4,5-g]isoquino[3,2-a]isoquinoline], 1.93 ± 0.24 Fold of control.
To `COc1ccc2c(c1OS(=O)(=O)c1ccc(-c3ccccc3)cc1)CN1CCc3cc4c(cc3C1C2)OCO4` (stereo not shown) [Compound 37, 10-methoxy-5,6,7,8,13,13a-hexahydro-2H-1,3-dioxolano[4,5-g]isoquinolino[3,2-a]isoquinolin-9-yl 4-phenylbenzenesulfonate] belongs 2.47 ± 0.07 Fold of control; to `COc1ccc2c(c1Oc1ccc([N+](=O)[O-])cn1)CN1CCc3cc4c(cc3C1C2)OCO4` (stereo not shown) [Compound 96, 10-methoxy-9-(5-nitro(2-pyridyl)oxy)-5,6,7,8,13,13a-hexahydro-2H-1,3-dioxolano [4,5-g]isoquinolino[3,2-a]isoquinoline], 1.33 ± 0.05 Fold of control; to `COc1ccc2c(c1OS(=O)(=O)c1ccc(F)c(F)c1)CN1CCc3cc4c(cc3C1C2)OCO4` (stereo not shown) [Compound 53, 10-methoxy-5,6,7,8,13,13a-hexahydro-2H-1,3-dioxolano[4,5-g]isoquinolino[3,2-a]isoquinolin-9-yl 3,4-difluorobenzenesulfonate], 3.96 ± 0.40 Fold of control.
In the case of `COc1ccc2c(c1OS(=O)(=O)c1cccc([N+](=O)[O-])c1)CN1CCc3cc4c(cc3C1C2)OCO4` (stereo not shown) [Compound 63, 10-methoxy-5,6,7,8,13,13a-hexahydro-2H-1,3-dioxolano[4,5-g]isoquinolino[3,2-a]isoquinolin-9-yl 3-nitrobenzenesulfonate], the “Activity … (Fold of control)” value is 2.94 ± 0.13 Fold of control.
`COc1ccc2c(c1OS(=O)(=O)c1cccc3cccnc13)CN1CCc3cc4c(cc3C1C2)OCO4` (stereo not shown) [Compound 66, 10-methoxy-5,6,7,8,13,13a-hexahydro-2H-1,3-dioxolano[4,5-g]isoquinolino[3,2-a]isoquinolin-9-yl quinoline-8-sulfonate]: the “Activity … (Fold of control)” value was 2.54 ± 0.06 Fold of control.
As to `COc1ccc2c(c1OS(=O)(=O)c1cccc3c(N(C)C)cccc13)CN1CCc3cc4c(cc3C1C2)OCO4` (stereo not shown) [Compound 89, 10-methoxy-5,6,7,8,13,13a-hexahydro-2H-1,3-dioxolano [4,5-g]isoquinolino[3,2-a] isoquinolin-9-yl 5-(dimethylamino)naphthalene-sulfonate], the “Activity … (Fold of control)” value was 1.92 ± 0.40 Fold of control.
As for `COc1ccc2c(c1OS(=O)(=O)c1ccc(F)cc1)CN1CCc3cc4c(cc3C1C2)OCO4` (stereo not shown) [Compound 58, 10-methoxy-5,6,7,8,13,13a-hexahydro-2H-1,3-dioxolano[4,5-g]isoquinolino[3,2-a]isoquinolin-9-yl 4-fluorobenzenesulfonate], the “Activity … (Fold of control)” value is given as 3.90 ± 0.01 Fold of control.
Regarding `COc1ccc2c(c1OS(=O)(=O)c1cccc(C)c1)CN1CCc3cc4c(cc3C1C2)OCO4` (stereo not shown) [Compound 60, 10-methoxy-5,6,7,8,13,13a-hexahydro-2H-1,3-dioxolano[4,5-g]isoquinolino[3,2-a]isoquinolin-9-yl 3-methylbenzenesulfonate], the “Activity … (Fold of control)” value was 3.46 ± 0.75 Fold of control.
To `COc1ccc2c(c1OS(=O)(=O)c1ccc(C)cc1)CN1CCc3cc4c(cc3C1C2)OCO4` (stereo not shown) [Compound 57, 10-methoxy-5,6,7,8,13,13a-hexahydro-2H-1,3-dioxolano[4,5-g]isoquinolino[3,2-a]isoquinolin-9-yl 4-methylbenzenesulfonate] belongs 2.62 ± 0.17 Fold of control; to `COc1ccc2c(c1OS(=O)(=O)c1sc(NC(C)=O)nc1C)CN1CCc3cc4c(cc3C1C2)OCO4` (stereo not shown) [Compound 93, 10-methoxy-5,6,7,8,13,13a-hexahydro-2H-1,3-dioxolano [4,5-g]isoquinolino[3,2-a]isoquinolin-9-yl 2-(acetylamino)-4-methyl-1,3-thiazole-5-sulfonate], 1.42 ± 0.16 Fold of control.
On to `COc1ccc2c(c1OS(=O)(=O)c1cccnc1)CN1CCc3cc4c(cc3C1C2)OCO4` (stereo not shown) [Compound 101, 10-methoxy-5,6,7,8,13,13a-hexahydro-2H-1,3-dioxolano [4,5-g]isoquinolino[3,2-a]isoquinolin-9-yl pyridine-3-sulfonate], for which the “Activity … (Fold of control)” value is 1.97 ± 0.00 Fold of control.
To `COc1ccc2c(c1)CN1CCc3cc4c(cc3C1C2)OCO4` (stereo not shown) [Compound 92, 10-methoxy-5,6,7,8,13,13a-hexahydro-2H-1,3-dioxolano[4,5-g]isoquinolino[3,2-a]isoquinoline] belongs 1.52 ± 0.07 Fold of control.
Then `COc1ccc2c(c1OS(=O)(=O)c1ccccc1F)CN1CCc3cc4c(cc3C1C2)OCO4` (stereo not shown) [Compound 51, 10-methoxy-5,6,7,8,13,13a-hexahydro-2H-1,3-dioxolano[4,5-g]isoquinolino[3,2-a]isoquinolin-9-yl 2-fluorobenzenesulfonate], with 3.79 ± 0.33 Fold of control.
To `COc1cc2c(cc1OC)C1Cc3ccc(OC)c(OCc4ccccc4)c3CN1CC2` (stereo not shown) [Compound 64, 2,3,10-trimethoxy-9-(phenylmethoxy)-5,6,7,8,13,13a-hexahydroisoquinolino[3,2-a]isoquinoline] belongs 2.82 ± 0.45 Fold of control; to `COc1ccc2c(c1OS(=O)(=O)c1ccc(C(F)(F)F)cc1)CN1CCc3cc4c(cc3C1C2)OCO4` (stereo not shown) [Compound 85, 9-(4-trifluoromethyl-benzenesulfonyloxy)-10-methoxy-5,8,13,13a-tetrahydro-6H-[1,3]dioxolo[4,5-g]isoquino[3,2-a]isoquinoline], 1.42 ± 0.30 Fold of control.
Consider `COc1ccc2c(c1OS(=O)(=O)c1ccc([N+](=O)[O-])cc1)CN1CCc3cc4c(cc3C1C2)OCO4` (stereo not shown) [Compound 65, 10-methoxy-5,6,7,8,13,13a-hexahydro-2H-1,3-dioxolano[4,5-g]isoquinolino[3,2-a]isoquinolin-9-yl 4-nitrobenzenesulfonate], for which the “Activity … (Fold of control)” value is listed as 2.58 ± 0.46 Fold of control.
Then `CCOC(=O)Oc1c(OC)ccc2c1CN1CCc3cc4c(cc3C1C2)OCO4` (stereo not shown) [Compound 48, 10-methoxy-5,6,7,8,13,13a-hexahydro-2H-1,3-dioxolano[4,5-g]isoquinolino[3,2-a]isoquinolin-9-yl ethoxyformate], with 1.45 ± 0.15 Fold of control; and `COc1ccc2c(c1Oc1ncc(N)cc1C)CN1CCc3cc4c(cc3C1C2)OCO4` (stereo not shown) [Compound 100, 6-(10-methoxy(5,6,7,8,13,13a-hexahydro-2H-1,3-dioxolano[4,5-g]isoquinolino[3,2-a]isoquinolin-9-yloxy))-5-methyl-3-pyridylamine], with 1.44 ± 0.59 Fold of control; and `COc1cc2c(cc1OCc1ccccc1)CCN1Cc3c(ccc(OC)c3OS(=O)(=O)c3ccccc3)CC21` (stereo not shown) [Compound 95, 2,10-dimethoxy-3-(phenylmethoxy)-5,6,7,8,13,13a-hexahydroisoquinolino[2,1-b]isoquinolin-9-yl benzenesulfonate], with 1.43 ± 0.04 Fold of control.
As to `COc1ccc2c(c1OS(=O)(=O)c1ccc(F)cc1F)CN1CCc3cc4c(cc3C1C2)OCO4` (stereo not shown) [Compound 59, 10-methoxy-5,6,7,8,13,13a-hexahydro-2H-1,3-dioxolano[4,5-g]isoquinolino[3,2-a]isoquinolin-9-yl 2,4-difluorobenzenesulfonate], the “Activity … (Fold of control)” value is reported as 3.73 ± 0.10 Fold of control.
